For 17 molecules, Ki and ED50 results are on record in ChEMBL document CHEMBL1128063, “Discovery of selective dopamine D3 ligands: I. Dimeric 2-[4-(3-aminopropoxy)phenyl]benzimidazole antagonists” (Bioorg Med Chem Lett, 1995).

One experiment has as its target D(2) dopamine receptor (Homo sapiens, UniProt P14416). Kind of experiment: Binding affinity towards human cloned Dopamine D2 receptor in CHO cells by [3H]spiperone displacement. The experiment is classed as cell-based.
A further experiment addresses D(3) dopamine receptor (Homo sapiens, UniProt P35462). In words: Binding affinity towards human cloned Dopamine D3 receptor in CHO cells by [3H]spiperone displacement. Type of experiment: cell-based.
The next experiment concerns Rattus norvegicus. Kind of experiment: Compound was tested for the locomotory activity in rats after oral administration; no effect. Type of experiment: functional.
The next experiment relates to Mus musculus. In words: Compound was tested for the locomotory activity in mice after ip administration. The experiment is classed as functional.

D(3) dopamine receptor, sequence (P35462 whole entry): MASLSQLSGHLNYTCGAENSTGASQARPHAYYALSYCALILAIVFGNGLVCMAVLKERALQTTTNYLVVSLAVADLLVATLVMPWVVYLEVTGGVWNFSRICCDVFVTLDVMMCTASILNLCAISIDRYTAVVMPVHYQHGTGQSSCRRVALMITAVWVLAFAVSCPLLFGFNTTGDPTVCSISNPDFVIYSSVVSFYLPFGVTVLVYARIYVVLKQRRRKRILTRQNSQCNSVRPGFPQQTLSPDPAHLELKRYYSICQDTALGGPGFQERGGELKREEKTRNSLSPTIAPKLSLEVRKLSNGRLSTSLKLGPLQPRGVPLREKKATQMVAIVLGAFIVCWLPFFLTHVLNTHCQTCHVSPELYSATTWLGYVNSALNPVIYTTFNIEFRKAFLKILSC
D(2) dopamine receptor, sequence (P14416 whole entry): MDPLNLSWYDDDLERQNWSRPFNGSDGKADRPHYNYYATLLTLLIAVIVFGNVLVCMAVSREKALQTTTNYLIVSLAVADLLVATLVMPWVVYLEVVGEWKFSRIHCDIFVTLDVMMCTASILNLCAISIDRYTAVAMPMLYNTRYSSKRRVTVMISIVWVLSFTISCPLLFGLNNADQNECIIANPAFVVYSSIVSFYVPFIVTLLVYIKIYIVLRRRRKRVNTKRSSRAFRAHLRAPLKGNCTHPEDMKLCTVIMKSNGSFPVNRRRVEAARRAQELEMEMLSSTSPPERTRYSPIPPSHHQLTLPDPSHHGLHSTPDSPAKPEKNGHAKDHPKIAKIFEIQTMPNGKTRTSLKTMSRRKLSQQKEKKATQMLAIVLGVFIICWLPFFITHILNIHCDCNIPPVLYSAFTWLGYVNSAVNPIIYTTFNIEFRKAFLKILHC

On to `CCN(CC)CCCOc1ccc(-c2nc3ccccc3n2C/C=C/Cn2c(-c3ccc(OCCCN(CC)CC)cc3)nc3ccccc32)cc1`, for which the Ki is 2350 nM on D(2) dopamine receptor and 35 nM at D(3) dopamine receptor.

At D(2) dopamine receptor, `CCN(CC)CCCOc1ccc(-c2nc3ccccc3n2C/C=C/Cn2c(-c3ccc(OC)cc3)nc3ccccc32)cc1` showed an inhibitory constant (Ki) of 1410 nM.

For the molecule `C(=C\Cn1c(-c2ccc(OCCCN3CCCCC3)cc2)nc2ccccc21)/Cn1c(-c2ccc(OCCCN3CCCCC3)cc2)nc2ccccc21`, the ED50 in the experiment with Rattus norvegicus was more than 30 mg/kg; with Mus musculus, 7.1 mg/kg. Further, the values for the Ki on D(2) dopamine receptor and at D(3) dopamine receptor were 517 nM and 10 nM, respectively.

Take `CCN(CC)CCCOc1ccc(-c2nc3ccccc3n2CC=CCn2c(-c3ccc(OCCCN(CC)CC)cc3)nc3ccccc32)cc1`: the figures for the inhibitory constant (Ki) at D(2) dopamine receptor and on D(3) dopamine receptor were 1520 nM and 87 nM, respectively.

With `CN(C)CCCOc1ccc(-c2nc3ccccc3n2C/C=C/Cn2c(-c3ccc(OCCCN(C)C)cc3)nc3ccccc32)cc1`, the Ki on D(2) dopamine receptor worked out at 4990 nM; at D(3) dopamine receptor, 144 nM.

As for `C(=C\Cn1c(-c2ccc(OCCCN3CCCC3)cc2)nc2ccccc21)/Cn1c(-c2ccc(OCCCN3CCCC3)cc2)nc2ccccc21`, the Ki turned out to be 56 nM on D(2) dopamine receptor and 9 nM at D(3) dopamine receptor.

At D(2) dopamine receptor, `CCCCN(CCCC)CCCOc1ccc(-c2nc3ccccc3n2C/C=C/Cn2c(-c3ccc(OCCCN(CCCC)CCCC)cc3)nc3ccccc32)cc1` showed a Ki of 472 nM.

For `CCN(CC)CCCOc1ccc(-c2nc3ccccc3n2CCCCCCn2c(-c3ccc(OCCCN(CC)CC)cc3)nc3ccccc32)cc1`, the Ki at D(2) dopamine receptor was 1750 nM; at D(3) dopamine receptor, 131 nM.

Regarding `CCN(CC)CCCOc1ccc(-c2nc3ccccc3n2CCCCn2c(-c3ccc(OCCCN(CC)CC)cc3)nc3ccccc32)cc1`, the inhibition constant Ki was found to be 1490 nM at D(2) dopamine receptor and 28 nM on D(3) dopamine receptor.

On to `C(=C\Cn1c(-c2ccc(OCCCN3CCN(c4ccccc4)CC3)cc2)nc2ccccc21)/Cn1c(-c2ccc(OCCCN3CCN(c4ccccc4)CC3)cc2)nc2ccccc21`, for which the Ki was 3940 nM on D(2) dopamine receptor and 275 nM on D(3) dopamine receptor.

With `CCCN(CCC)CCCOc1ccc(-c2nc3ccccc3n2C/C=C/Cn2c(-c3ccc(OCCCN(CCC)CCC)cc3)nc3ccccc32)cc1`, the Ki at D(2) dopamine receptor stood at 343 nM; on D(3) dopamine receptor it was 5 nM.

With `C(=C\Cn1c(-c2ccc(OCCCN3CCOCC3)cc2)nc2ccccc21)/Cn1c(-c2ccc(OCCCN3CCOCC3)cc2)nc2ccccc21`, the results for the inhibitory constant (Ki) on D(2) dopamine receptor and at D(3) dopamine receptor were more than 3330 nM and more than 2040 nM, respectively.

Regarding `CCN(CC)CCCOc1ccc(-c2nc3ccccc3n2C/C=C/Cn2c(-c3ccc(OCCCC4CCCCC4)cc3)nc3ccccc32)cc1`, the Ki came out at 1030 nM on D(2) dopamine receptor and 39 nM on D(3) dopamine receptor.

As for `CCN(CC)CCCOc1ccc(-c2nc3ccccc3n2C/C=C/Cn2c(C)nc3ccccc32)cc1`, the Ki on D(2) dopamine receptor was more than 3330 nM; on D(3) dopamine receptor, 1200 nM.

For the molecule `CCN(CC)CCCOc1ccc(-c2nc3ccccc3n2C/C=C/Cn2c(-c3ccc(OCCCN4CCN(c5ccccc5)CC4)cc3)nc3ccccc32)cc1`, the Ki on D(2) dopamine receptor stood at 803 nM; at D(3) dopamine receptor it was 19 nM.

Turning to `CCN(CC)CCCOc1ccc(-c2nc3ccccc3n2C/C=C/Cn2c(-c3ccccc3)nc3ccccc32)cc1`, the results for the Ki at D(2) dopamine receptor and on D(3) dopamine receptor were 6530 nM and 133 nM, respectively.

As to `CCN(CC)CCCOc1ccc(-c2nc3ccccc3n2Cc2ccc(Cn3c(-c4ccc(OCCCN(CC)CC)cc4)nc4ccccc43)cc2)cc1`, the Ki at D(2) dopamine receptor came to 3440 nM; on D(3) dopamine receptor, 184 nM.
